Measurements published in PMC8305076, “Comprehensive Evaluation of Biological Effects of Pentathiepins on Various Human Cancer Cell Lines and Insights into Their Mode of Action” (International Journal of Molecular Sciences, 2021).

Key:
Type in all cases: cell-based, human
PATU-8902 = assay: cell cycle analysis (PI staining); conditions: IC90, 24 and 48 h (Figure 19b)
Method: (§1) The potent cytotoxicity and the potential to inhibit the proliferation of cancer cells accompanied by DNA damage effects raised the question as to whether cell cycle progression might be affected as a result of treatment with pentathiepins.
(§2) Cells were harvested by trypsinization, collected in 1.5 mL tubes, and washed twice with PBS by centrifuging for 5 min at 500× g and discarding the supernatant after every step. For fixation, 500 µL of ice-cold ethanol (70%) was added dropwise under vortexing with a subsequent incubation on ice for 30 min. Then, the cells were centrifuged for 10 min at 4000 rpm and 4 °C, the supernatant was removed, and the cells were resuspended in 500 µL of PBS containing 25 µg/mL of PI and 100 µg/mL of RNase. The staining solution was incubated for 30 min, and the cell suspension was measured at λEx/Em = 488/655–730 nm using a MACSquant Analyzer 10 (Miltenyi Biotec, Teterow, Germany).

YAPC = assay: cell cycle analysis (PI staining); conditions: IC90, 24 and 48 h (Figure 19c)
Method: as §1, §2

PARP1 in Siso = assay: Western blot of cleaved PARP1; conditions: IC90, 24 h
Method: (§3) In addition to general flow cytometric and microscopic analyses, Western blotting was performed to detect the apoptosis-relevant protein PARP1 (poly(ADP-ribose) polymerase 1) and its cleavage fragment (Figure 17 and Figures S29–S34). Full-length PARP1 (116 kDa) is involved in DNA repair, and a cleavage by caspases (fragment sizes 24 and 89 kDa) caused by caspase-3 and -7 is a hallmark of late apoptosis.
(§4) All detected specific bands were normalized to the total protein load per lane by the TGX stain-free gel system from Bio-Rad.
(§5) All Western blot analyses were performed with reagents, material, and devices purchased from Bio-Rad (Feldkirchen, Germany) if not stated otherwise. To obtain protein lysates, we seeded cells and treated them as described for the other methods. […] Cells were harvested by trypsinization and centrifugation for 5 min at 500× g. After a washing step with PBS, the cell pellet was resuspended in lysis buffer (Tris 50 mM (pH 7.4), 100 mM NaCl, 100 mM NaF, 5 mM EDTA, 0.2 mM Na3VO4, 0.1% Triton-X, and 1% protease inhibitor cocktail added immediately before use). Lysis was supported by incubating the samples for 10 min in an ultrasonic bath before centrifuging for 10 min at 18,000 × g and 4 °C. Protein quantification was performed via the Bradford method using ROTI®nanoquant reagent (Carl Roth GmbH, Karlsruhe, Germany) and bovine serum albumin as calibration standard. For electrophoretic separation, 15–40 µg of protein was loaded per well of a polyacrylamide gel (Mini- or Midi-Protean® TGX stain-free gel, Bio-Rad, Feldkirchen, Germany), and subsequent blotting was performed with Trans-Blot®Turbo™TransferPack Mini or Midi PVDF membranes from Bio-Rad (Feldkirchen, Germany). The membranes were blocked with a 10% non-fat milk powder solution in Tris-buffered saline (TBS; 2.42 g/L Tris, 8.48 g/L NaCl in water) plus 0.5% Tween-20 (TBST) for 1 h at RT. Incubation with primary antibodies took place over night at 4 °C in a 1:1000 dilution in TBST containing BSA (1%). The secondary antibodies conjugated to horse-radish peroxidase were diluted 1:10,000 in TBST and 1% BSA, and incubated for 4 h at RT. A detection step followed, applying Clarity™Western ECL substrate with subsequent imaging via the INTAS Advanced Fluorescence Imager. Between all incubation steps, the blots were washed three times for 10 min with TBST. The bands were quantified with the ImageLab software and normalized using the total protein quantification of the TGX stain-free gel system from Bio-Rad.

PARP1 in A2780 = assay: Western blot of cleaved PARP1; conditions: IC90, 24 h
Method: as §3, §4, §5

HAP-1.KO.GPx1 = assay: annexin V-FITC/PI apoptosis assay; conditions: for early apoptotic cells: pentathiepins IC90, doxorubicin 0.5 µM, 24 h
Method: (§6) As reported in our earlier publication, a representative pentathiepin was capable of inducing apoptosis in cancer cell lines. Here, we tested compounds 1–6 for their ability to trigger this particular modality of cell death in a subset of four cell lines: HAP-1, HAP-1.KO.GPx1, A2780, and Siso. A flow cytometric assay was performed, allowing us to discriminate between viable, early, and late apoptotic cells (representative dot plots can be found in Figure S47). FITC-labeled annexin V was used to assess the externalization of phosphatidyl serine as a hallmark of early apoptosis induction. The addition of propidium iodide (PI) enabled the detection of late apoptotic cells as it only permeates porous cell membranes and exerts fluorescence once bound to double-stranded DNA.
(§7) The annexin V-FITC/PI assay, which discriminates between viable, early, and late apoptotic cells within a sample population, was performed according to the manufacturer’s instructions (Miltenyi Biotec, Teterow, Germany). Briefly, 125,000 cells were seeded in 2 mL per well of a 6-well plate, allowed to adhere overnight, and subsequently treated with the respective pentathiepin (IC90, see Table S4) diluted in 3 mL of medium. After incubation periods of 6, 24, or 48 h, the cells were harvested, washed with the provided binding buffer, and stained with the annexin V-FITC reagent for 20 min at room temperature (RT) in the dark. After another washing step, the pellet was resuspended, and PI was added immediately before flow cytometric measurement at λEx/Em = 488/525 ± 50 nm for FITC and λEx/Em = 488/655–730 nm for PI with the MACSquant Analyzer 10 (Miltenyi Biotec, Teterow, Germany).

HAP-1 = assay: annexin V-FITC/PI apoptosis assay; conditions: IC90, 24 h
Method: as §6, §7

Siso = assay: annexin V-FITC/PI apoptosis assay; conditions: IC90, 24 h
Method: as §6, §7

Compound | increase of S-phase cells (PATU-8902) | increase of G0/G1-phase cells (YAPC) | fraction of 89 kDa PARP1 (PARP1 in Siso) | fraction of 89 kDa PARP1 (PARP1 in A2780) | early apoptotic cells (HAP-1.KO.GPx1) | further results
CCOc1c2c(c3ccc(C(=O)N(CC)CC)cn13)SSSSS2 [Compound 4, 6-Ethoxy-N,N’-diethyl-[1,2,3,4,5]pentathiepino[6,7-a]indolizine-9-carboxamide] | up to 14% |  |  |  |  | 
CCOc1c2c(c3ccc(C(=O)N4CCN(S(=O)(=O)c5ccc(C)cc5)CC4)cn13)SSSSS2 [Compound 6, (6-Ethoxy-[1,2,3,4,5]pentathiepino[6,7-a]indolizin-9-yl)(4-tosylpiperazinyl)methanone] |  | up to 18% |  |  |  | 
CCOc1c2c(c3ccc(C(=O)N4CCN(C(=O)c5ccc(F)cc5)CC4)cn13)SSSSS2 [Compound 5, (6-Ethoxy-[1,2,3,4,5]pentathiepino[6,7-a]indolizin-9-yl)(4-(4-fluorobenzoyl)piperazinyl)methanone] |  |  | very small and only confirmed after treatment with pentathiepins 3 or 5 | very small and only confirmed after treatment with pentathiepins 3 or 5 | 15% | 
CCOc1c2c(c3ccc(C(=O)N4CCOCC4)cn13)SSSSS2 [Compound 3, (6-Ethoxy-[1,2,3,4,5]pentathiepino[6,7-a]indolizin-9-yl)(morpholino)methanone] | up to 14% |  | very small and only confirmed after treatment with pentathiepins 3 or 5 | very small and only confirmed after treatment with pentathiepins 3 or 5 | 34% | late apoptotic cells (HAP-1.KO.GPx1; IC90, 24 h): 6%; late apoptotic cells (HAP-1): up to 12%; early apoptotic cells (Siso): about 20%; late apoptotic cells (Siso): about 20%
CCOc1c2c(c3cnc4[nH]c(-c5ccc(OC)cc5)cc4n13)SSSSS2 [Compound 1, 11-Ethoxy-2-(4-methoxyphenyl)-3H-[1,2,3,4,5]pentathiepino[6′,7′:3,4]pyrrolo[1,2-a]pyrrolo[2,3-e]pyrazine] |  | up to 18% |  |  |  | 
